Experiment [1] deals with T1, FLT3 (Homo sapiens, UniProt P36888).
T1 construct: made in house
T1 sequence (P36888 27-993): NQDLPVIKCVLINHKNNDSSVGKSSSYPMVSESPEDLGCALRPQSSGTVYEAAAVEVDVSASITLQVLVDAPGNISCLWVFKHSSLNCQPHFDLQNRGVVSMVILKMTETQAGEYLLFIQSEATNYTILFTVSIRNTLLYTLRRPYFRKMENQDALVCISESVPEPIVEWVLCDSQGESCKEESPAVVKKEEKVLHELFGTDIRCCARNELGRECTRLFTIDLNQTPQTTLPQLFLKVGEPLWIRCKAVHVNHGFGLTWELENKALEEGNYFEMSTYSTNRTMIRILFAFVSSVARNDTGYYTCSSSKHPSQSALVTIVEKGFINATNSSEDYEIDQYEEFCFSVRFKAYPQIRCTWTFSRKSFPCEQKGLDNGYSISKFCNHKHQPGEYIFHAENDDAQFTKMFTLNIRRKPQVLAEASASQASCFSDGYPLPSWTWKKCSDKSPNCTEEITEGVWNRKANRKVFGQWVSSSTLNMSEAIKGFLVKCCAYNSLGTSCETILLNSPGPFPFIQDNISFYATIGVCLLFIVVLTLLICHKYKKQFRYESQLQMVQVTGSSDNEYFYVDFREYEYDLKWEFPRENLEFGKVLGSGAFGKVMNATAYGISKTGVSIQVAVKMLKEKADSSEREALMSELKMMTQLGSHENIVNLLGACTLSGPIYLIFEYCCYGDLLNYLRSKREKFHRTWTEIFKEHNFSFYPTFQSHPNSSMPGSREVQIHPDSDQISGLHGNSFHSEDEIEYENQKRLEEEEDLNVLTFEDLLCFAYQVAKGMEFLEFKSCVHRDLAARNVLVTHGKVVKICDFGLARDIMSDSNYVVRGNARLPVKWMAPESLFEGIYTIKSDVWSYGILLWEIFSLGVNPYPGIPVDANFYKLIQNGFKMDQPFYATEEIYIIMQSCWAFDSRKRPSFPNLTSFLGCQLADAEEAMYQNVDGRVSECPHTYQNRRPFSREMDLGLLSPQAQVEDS
Description: Binding constant (Kd) measurement, phage-displayed kinase competition binding assay, FLT3. The procedure:
(§1) Binding Constant (Kd) Measurements for Small-Molecule-Kinase Interactions
(§2) By testing across a large class of protein kinases, specificity of the kinase inhibitors provided herein is also determined. The components of the assays include various human kinases expressed as fusions to T7 bacteriophage particles and immobilized ligands that bind to the ATP site of the kinases. […] If the test compound binds the kinase, it competes with the immobilized ligand and prevents binding to the solid support. […] The results are read out by quantitating the amount of fusion protein bound to the solid support, which is accomplished by either traditional phage plaque assays or by quantitative PCR (qPCR) using the phage genome as a template.

The subject of experiment [2] is MV4-11 cells. The experiment is described as follows: Cellular proliferation assay (MTS), MV4-11. The experiment is classed as cell-based. The conditions noted are these: Homo sapiens; MV4-11 cells, 72 hour incubation, MTS; read-out: Cellular Assay MV-proliferation IC50. The source says: Cellular Proliferation Assay
Cancer cell viability and proliferation can be evaluated using a tetrazolium salt reduction cell-based assay. In viable cells, this colorimetric assay can measure mitochondrial reduction of a tetrazolium component (MTS) into an […] formazan product.
This cell line was used to determine the ability of the compounds provided herein to inhibit Flt3 in intact cells. The RS4-11 cell line, which expresses the wild-type (WT) receptor, is also used as a control to verify the test compound's ability to inhibit the FLT3 receptor containing the ITD mutation.
MV4-11 cells were plated at 10,000 cells per well in DMEM medium with 0.5% serum. RS4-11 cells were plated at 20,000 cells per well in RPMI with 0.5% serum. […] An aliquot from each well of the compound plate was transferred to the plated cells and then incubated @ 37° C. in 5% CO2 (for 3 days for the MV4-11 cells, 2 days for the RS4-11 cells).
MTS tetrazolium compound (Owen's reagent) was thawed in a H2O bath. 20 μl of MTS tetrazolium was added to each well of optical plate and the cells were incubated @ 37° C. in 5% CO2 for 2 hours.

Experiment [3] addresses T2, KIT (Homo sapiens, UniProt P10721).
T2 construct: made in house
The experiment is described as follows: Binding constant (Kd) measurement, phage-displayed kinase competition binding assay, KIT. The procedure:
as §1, §2

The target of experiment [4] is T3, CSF1R (Homo sapiens, UniProt P07333).
T3 construct: made in house
The experiment is described as follows: Binding constant (Kd) measurement, phage-displayed kinase competition binding assay, CSF1R. The procedure:
as §1, §2

[5] abbreviates: read-out: Binding Assay FLT3 Kd.

Counter-ions that a name gives are not always drawn. Like-named read-outs stand apart in the source and are kept apart here. Bounds are passed on as bounds.

T3 sequence (P07333 20-972): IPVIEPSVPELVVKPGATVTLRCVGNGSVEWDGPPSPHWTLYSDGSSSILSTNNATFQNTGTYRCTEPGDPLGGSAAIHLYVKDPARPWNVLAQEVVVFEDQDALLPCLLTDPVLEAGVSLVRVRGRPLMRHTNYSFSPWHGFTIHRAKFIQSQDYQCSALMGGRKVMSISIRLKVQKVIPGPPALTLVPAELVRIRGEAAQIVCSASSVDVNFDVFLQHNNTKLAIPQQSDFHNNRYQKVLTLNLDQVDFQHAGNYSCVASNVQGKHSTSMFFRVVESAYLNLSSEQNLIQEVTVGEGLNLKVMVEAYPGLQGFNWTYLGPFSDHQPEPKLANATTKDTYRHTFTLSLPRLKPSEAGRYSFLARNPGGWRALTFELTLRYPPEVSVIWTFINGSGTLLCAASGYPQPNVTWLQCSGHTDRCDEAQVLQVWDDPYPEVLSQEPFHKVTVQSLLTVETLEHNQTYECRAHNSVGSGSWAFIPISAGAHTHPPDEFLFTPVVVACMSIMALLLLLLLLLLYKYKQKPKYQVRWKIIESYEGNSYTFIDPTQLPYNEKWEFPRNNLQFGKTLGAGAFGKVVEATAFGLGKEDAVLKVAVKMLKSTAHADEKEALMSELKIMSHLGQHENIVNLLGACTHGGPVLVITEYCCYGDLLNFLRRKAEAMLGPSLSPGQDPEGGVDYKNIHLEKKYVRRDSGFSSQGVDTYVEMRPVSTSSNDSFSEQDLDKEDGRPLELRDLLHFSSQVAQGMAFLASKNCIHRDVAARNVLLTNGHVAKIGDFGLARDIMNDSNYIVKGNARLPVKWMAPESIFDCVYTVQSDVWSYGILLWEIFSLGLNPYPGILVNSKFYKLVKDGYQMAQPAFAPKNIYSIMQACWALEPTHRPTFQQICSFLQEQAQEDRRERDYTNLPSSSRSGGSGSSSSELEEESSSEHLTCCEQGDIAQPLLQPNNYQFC
T2 sequence (P10721 26-976): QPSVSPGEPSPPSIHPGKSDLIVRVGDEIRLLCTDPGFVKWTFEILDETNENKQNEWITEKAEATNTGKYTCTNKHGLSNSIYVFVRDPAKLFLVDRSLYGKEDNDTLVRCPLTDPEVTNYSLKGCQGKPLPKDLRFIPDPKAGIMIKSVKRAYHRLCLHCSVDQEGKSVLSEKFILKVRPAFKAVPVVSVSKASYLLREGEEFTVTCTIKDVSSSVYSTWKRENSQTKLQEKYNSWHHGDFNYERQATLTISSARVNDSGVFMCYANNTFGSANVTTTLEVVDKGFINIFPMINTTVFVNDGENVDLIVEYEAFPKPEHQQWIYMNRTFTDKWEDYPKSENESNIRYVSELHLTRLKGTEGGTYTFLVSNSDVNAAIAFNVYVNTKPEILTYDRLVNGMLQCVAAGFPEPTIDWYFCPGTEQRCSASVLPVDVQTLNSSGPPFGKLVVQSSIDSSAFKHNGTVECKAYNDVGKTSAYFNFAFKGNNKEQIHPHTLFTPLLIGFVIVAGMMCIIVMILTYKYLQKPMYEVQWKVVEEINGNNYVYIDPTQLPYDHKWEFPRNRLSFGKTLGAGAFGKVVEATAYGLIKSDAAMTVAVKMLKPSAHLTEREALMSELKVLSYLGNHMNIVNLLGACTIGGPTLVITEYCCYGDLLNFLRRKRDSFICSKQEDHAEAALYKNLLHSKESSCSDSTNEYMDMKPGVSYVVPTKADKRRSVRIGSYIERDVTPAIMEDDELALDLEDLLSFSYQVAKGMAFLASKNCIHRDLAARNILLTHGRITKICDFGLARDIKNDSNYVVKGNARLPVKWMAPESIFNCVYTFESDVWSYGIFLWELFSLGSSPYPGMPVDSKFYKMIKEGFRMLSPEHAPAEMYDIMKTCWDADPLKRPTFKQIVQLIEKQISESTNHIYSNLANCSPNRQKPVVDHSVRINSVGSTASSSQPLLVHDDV

As usually defined, the Kd is the constant that tells how readily two partners part at equilibrium. For `CC(C)[C@@H](N)C(=O)Oc1ccc2c(c1)sc1nc(-c3ccc(NC(=O)Nc4cc(C(C)(C)C)on4)cc3)cn12` [Compound B5, (2R)-2-amino-3-methyl-butyric acid 2-{4-[3-(5-tert-butyl-isoxazol-3-yl)-ureido]-phenyl}-benzo[d]imidazo[2,1-b]thiazol-7-yl ester], the Kd is below 10 nM in experiment [1], 10 to 100 nM in experiment [3] and 10 to 100 nM in experiment [4]. Further, the IC50 in experiment [2] was below 10 nM.

As to `CC(C)(C)c1cc(NC(=O)Nc2ccc(-c3cn4c(n3)sc3cc(OCCCN5CCOCC5)ccc34)cc2)no1` [Compound B7, 1-(5-tert-butyl-isoxazol-3-yl)-3-{4-[7-(3-morpholin-4-yl-propoxy)-benzo[d]imidazo[2,1-b]thiazol-2-yl]-phenyl}-urea hydrochloride], the Kd is below 10 nM in experiment [1] (setting [5]), 10 to 100 nM in experiment [3] and 10 to 100 nM in experiment [4]. For the same compound, in experiment [2], the IC50 was below 10 nM.

With `CC(C)(C)c1cc(NC(=O)Nc2ccc(-c3cn4c(n3)sc3cc(OCCCN5CCSCC5)ccc34)cc2)no1` [Compound B8, 1-(5-tert-Butyl-isoxazol-3-yl)-3-{4-[7-(3-thiomorpholin-4-yl-propoxy)-benzo[d]imidazo[2,1-b]thiazol-2-yl]-phenyl}-urea], the figures for the dissociation constant Kd in experiment [1], in experiment [3] and in experiment [4] were below 10 nM, 10 to 100 nM and 10 to 100 nM, respectively. Further, in experiment [2], the IC50 lay in the range of 10 to 100 nM.

As to `CC(C)(C)c1cc(NC(=O)Nc2ccc(-c3cn4c(n3)sc3cc(OCCCN5CCN(S(C)(=O)=O)CC5)ccc34)cc2)no1` [Compound B10, 1-(5-tert-butyl-isoxazol-3-yl)-3-(4-{7-[3-(4-methanesulfonyl-piperazin-1-yl)-propoxy]-benzo[d]imidazo[2,1-b]thiazol-2-yl}-phenyl)-urea], the results for the Kd in experiment [1] (setting [5]), in experiment [3] and in experiment [4] were below 10 nM, 10 to 100 nM and 10 to 100 nM, respectively. Moreover, the IC50 in experiment [2] is below 10 nM.

Regarding `CC(C)(C)c1cc(NC(=O)Nc2ccc(-c3cn4c(n3)sc3cccc(OCCN5CCOCC5)c34)cc2)no1` [Compound B11, N-(5-tert-butyl-isoxazol-3-yl)-N′-{4-[5-(2-morpholin-4-yl-ethoxy)imidazo[2,1-b][1,3]benzothiazol-2-yl]phenyl}urea hydrochloride], the Kd was below 10 nM in experiment [1] (setting [5]), 10 to 100 nM in experiment [3] and 100 to 1000 nM in experiment [4]. Also, the IC50 in experiment [2] is below 10 nM.

With `CC(C)(C)c1cc(NC(=O)Nc2ccc(-c3cn4c(n3)sc3ccc(OCCN5CCOCC5)cc34)cc2)no1` [Compound B12, N-(5-tert-butyl-isoxazol-3-yl)-N′-{4-[6-(2-morpholin-4-yl-ethoxy)imidazo[2,1-b][1,3]benzothiazol-2-yl]phenyl}urea hydrochloride], the Kd in experiment [1] (setting [5]) is below 10 nM; in experiment [3] it was 10 to 100 nM; in experiment [4], 100 to 1000 nM. Further, the IC50 in experiment [2] was below 10 nM.

In the case of `CC(C)(C)c1cc(NC(=O)Nc2cccc(-c3cn4c(n3)sc3cc(OCCN5CCOCC5)ccc34)c2)no1` [Compound B13, N-(5-tert-butyl-isoxazol-3-yl)-N′-{3-[7-(2-morpholin-4-yl-ethoxy)imidazo[2,1-b][1,3]benzothiazol-2-yl]phenyl}urea], the Kd was 100 to 1000 nM in experiment [1] (setting [5]), above 1000 nM in experiment [3] and above 1000 nM in experiment [4]. Moreover, the IC50 in experiment [2] is above 100 nM.

With `CCOC(=O)c1ccc2c(c1)sc1nc(-c3cccc(NC(=O)Nc4cc(C(C)(C)C)on4)c3)cn12` [Compound B14, 2-{3-[3-(5-tert-Butyl-isoxazol-3-yl)-ureido]-phenyl}-imidazo[2,1-b][1,3]benzothiazole-7-carboxylic acid ethyl ester], the Kd in experiment [1] (setting [5]), in experiment [3] and in experiment [4] was above 1000 nM in each case. Besides, the IC50 in experiment [2] is above 100 nM.

With `CCOC(=O)CCc1ccc2c(c1)sc1nc(-c3ccc(NC(=O)Nc4cc(C(C)(C)C)on4)cc3)cn12` [Compound C3, Ethyl 3-{2-[4-({[(5-tert-Butylisoxazol-3-yl)amino]carbonyl}amino)phenyl]imidazo[2,1-b][1,3]benzothiazol-7-yl}propanoate], the equilibrium dissociation constant (Kd) was below 10 nM in experiment [1], 10 to 100 nM in experiment [3] and above 1000 nM in experiment [4]. The IC50 in experiment [2] was below 10 nM.

`CC(C)(C)c1cc(NC(=O)Nc2ccc(-c3cn4c(n3)sc3cc(CCC(=O)O)ccc34)cc2)no1` [Compound C4, 3-{2-[4-({[(5-tert-butylisoxazol-3-yl)amino]carbonyl}amino)phenyl]imidazo[2,1-b][1,3]benzothiazol-7-yl}propanoic acid]: the Kd in experiment [1] (setting [5]) is below 10 nM; in experiment [3], below 10 nM; in experiment [4] it was 10 to 100 nM. Further, in experiment [2], the IC50 was below 10 nM.

On to `CCN1CCN(C(=O)CCc2ccc3c(c2)sc2nc(-c4ccc(NC(=O)Nc5cc(C(C)(C)C)on5)cc4)cn23)CC1` [Compound C5, N-(5-tert-Butyl-isoxazol-3-yl)-N′-(4-{7-[3-(4-ethyl-piperazin-1-yl)-3-oxo-propyl]imidazo[2,1-b][1,3]benzothiazol-2-yl}phenyl)urea], for which the Kd in experiment [1] (setting [5]) was below 10 nM; in experiment [3], below 10 nM; in experiment [4], 10 to 100 nM. In addition, the IC50 in experiment [2] is below 10 nM.

Consider `CC(C)(C)c1cc(NC(=O)Nc2ccc(-c3cn4c(n3)sc3cc(CCC(=O)N5CCOCC5)ccc34)cc2)no1` [Compound C7, N-(5-tert-butyl-isoxazol-3-yl)-N′-{4-[7-(3-morpholino-4-yl-3-oxo-propyl)imidazo[2,1-b][1,3]benzothiazol-2-yl]phenyl}urea], for which the Kd in experiment [1] (setting [5]) was below 10 nM; in experiment [3] it was below 10 nM; in experiment [4], 10 to 100 nM. For the same compound, the IC50 in experiment [2] is below 10 nM.

As to `CCN(CC)C(=O)CCc1ccc2c(c1)sc1nc(-c3ccc(NC(=O)Nc4cc(C(C)(C)C)on4)cc3)cn12` [Compound C8, 3-(2-{4-[3-(5-tert-butyl-isoxazol-3-yl)-ureido]-phenyl}-benzo[d]imidazo[2,1-b]thiazol-7-yl)-N,N-diethyl-propionamide], the Kd in experiment [1] is below 10 nM; in experiment [3], below 10 nM; in experiment [4], 10 to 100 nM. Moreover, in experiment [2], the IC50 was below 10 nM.

As for `CC(C)(C)c1cc(NC(=O)Nc2ccc(-c3cn4c(n3)sc3cc(C(=O)NCCN5CCOCC5)ccc34)cc2)no1` [Compound C19, 2-{4-[3-(5-tert-butyl-isoxazol-3-yl)-ureido]-phenyl}imidazo[2,1-b][1,3]benzothiazole-7-carboxylic acid (2-morpholin-4-yl-ethyl)-amide hydrochloride], the IC50 in experiment [2] was below 10 nM. Further, the Kd in experiment [3] is below 10 nM; in experiment [4], 10 to 100 nM.

For `CC(C)(C)c1cc(NC(=O)Nc2ccc(-c3cn4c(n3)sc3cc(C(=O)NCCN5CCCCC5)ccc34)cc2)no1` [Compound C20, 2-{4-[3-(5-tert-butyl-isoxazol-3-yl)-ureido]-phenyl}-imidazo[2,1-b][1,3]benzothiazole-7-carboxylic Acid (2-Piperidin-1-yl-ethyl)-amide hydrochloride], the IC50 in experiment [2] is below 10 nM. For the same compound, the figures for the Kd in experiment [3] and in experiment [4] were below 10 nM and 10 to 100 nM, respectively.

For `O=C(Nc1ccc(-c2cn3c(n2)sc2cc(OCCN4CCOCC4)ccc23)cc1)Nc1ccc2c(c1)OCO2` [Compound F3], the Kd in experiment [1] (setting [5]) is below 10 nM; in experiment [3], below 10 nM; in experiment [4], above 1000 nM.
